Counter-ions that a name gives are not always drawn. Like-named read-outs stand apart in the source and are kept apart here.
How the values were obtained:
[1] = system: abdominal cramps caused by PBQ; test: Abdominal contractions induced by phenyl-p-benzoquinone (PBQ) in the NMRI mouse; type: in vivo; details: 10 mg/kg IP
Description: Intraperitoneal administration of an alcoholic solution of PBQ causes abdominal cramps in the mouse (Proc. Soc. Exp. Biol., 1957, 95, 729-731). The cramps are characterised by repeated contractions of the abdominal musculature, accompanied by extension of the hind limbs. Most analgesics antagonise these abdominal cramps (Brit. J. Pharmacol. Chem., 1968, 32, 295-310). At t=0 min., the animals are weighed and the compound being studied is administered by the IP route. A group of control animals is given the solvent used for the compound. At t=30 min., an alcoholic solution of PBQ (0.2%) is administered by the IP route in a volume of 0.25 ml/mouse. Immediately after administration of the PBQ, the animals are placed in cylinders of plexiglass (L=19.5 cm; I.D.=5 cm). From t=35 min. to t=45 min., the animals' reaction is observed and the experimenter notes the total number of abdominal cramps per animal. The results are expressed as the percentage inhibition of the number of abdominal cramps measured in the control animals, at the active dose of the compound studied.

[2] = system: social recognition (memorisation); test: Social recognition in the Wistar rat; type: in vivo; details: 3 mg/kg IP, 2 hours after administration
Description: Initially described in 1982 (J. Comp. Physiol., 1982, 96, 1000-1006), the social recognition test has subsequently been proposed by various authors (Psychopharmacology, 1987, 91, 363-368; Psychopharmacology, 1989, 97, 262-268) for studying the mnemocognitive effects of new compounds. The test is based on the natural expression of the olfactory memory of the rat and its natural tendency to forget and allows evaluation of memorisation, by recognition of a young congeneric animal, by an adult rat. A young rat (21 days), taken at random, is placed for 5 minutes in the cage housing an adult rat. With the aid of a video device, the experimenter observes the social recognition behaviour of the adult rat and measures its overall duration. The young rat is then removed from the adult rat's cage and is placed in its own cage until the second introduction. The adult rat is given the compound under test by the intraperitoneal route and, after 2 hours, is again brought into the presence (5 minutes) of the young rat. The social recognition behaviour is then observed again and its duration measured. The assessment criterion is the difference (T2−T1), expressed in seconds, between the “recognition” times of the 2 encounters.

[3] = molecular target: type α7 central nicotinic receptors (Rattus norvegicus, UniProt Q05941); test: biochemical; type: binding
type α7 central nicotinic receptors, sequence (Q05941 23-502): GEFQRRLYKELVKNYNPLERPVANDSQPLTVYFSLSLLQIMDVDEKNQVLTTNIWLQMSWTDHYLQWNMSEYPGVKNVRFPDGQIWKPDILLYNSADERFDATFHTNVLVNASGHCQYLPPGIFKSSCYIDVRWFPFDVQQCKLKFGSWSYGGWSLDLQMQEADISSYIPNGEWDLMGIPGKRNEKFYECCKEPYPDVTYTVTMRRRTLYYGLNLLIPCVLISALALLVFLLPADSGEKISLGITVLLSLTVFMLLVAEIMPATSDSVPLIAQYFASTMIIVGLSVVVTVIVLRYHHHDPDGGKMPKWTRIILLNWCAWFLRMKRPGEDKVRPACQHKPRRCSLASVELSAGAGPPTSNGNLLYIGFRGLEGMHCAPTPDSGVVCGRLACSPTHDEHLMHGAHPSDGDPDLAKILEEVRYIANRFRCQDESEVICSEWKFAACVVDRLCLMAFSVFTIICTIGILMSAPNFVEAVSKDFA

[4] = molecular target: T1, type α4β2 central nicotinic receptors (Rattus norvegicus, UniProt P09483+P12390); test: Displacement of binding of [3H]-cytisine on type α4β2 nicotinic receptors of rat brain
T1 construct: from tissue; host or cells: rat brain membranes
T1 sequence (P09483 31-630): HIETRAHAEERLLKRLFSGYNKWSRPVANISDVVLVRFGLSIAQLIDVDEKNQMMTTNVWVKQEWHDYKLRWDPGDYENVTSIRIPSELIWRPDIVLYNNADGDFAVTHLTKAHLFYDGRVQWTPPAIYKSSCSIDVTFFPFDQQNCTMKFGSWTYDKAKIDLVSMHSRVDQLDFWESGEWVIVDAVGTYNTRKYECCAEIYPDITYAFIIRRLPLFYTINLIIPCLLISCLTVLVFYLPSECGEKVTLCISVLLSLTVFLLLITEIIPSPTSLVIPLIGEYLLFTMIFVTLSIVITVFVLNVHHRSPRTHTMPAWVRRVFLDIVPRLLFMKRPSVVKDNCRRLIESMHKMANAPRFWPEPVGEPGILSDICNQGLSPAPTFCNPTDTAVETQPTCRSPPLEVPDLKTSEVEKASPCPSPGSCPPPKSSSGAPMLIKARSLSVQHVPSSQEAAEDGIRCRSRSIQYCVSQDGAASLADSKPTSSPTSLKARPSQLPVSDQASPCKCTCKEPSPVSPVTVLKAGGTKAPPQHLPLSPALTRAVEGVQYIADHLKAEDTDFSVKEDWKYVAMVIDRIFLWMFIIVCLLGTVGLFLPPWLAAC
T1 sequence (P12390 25-500): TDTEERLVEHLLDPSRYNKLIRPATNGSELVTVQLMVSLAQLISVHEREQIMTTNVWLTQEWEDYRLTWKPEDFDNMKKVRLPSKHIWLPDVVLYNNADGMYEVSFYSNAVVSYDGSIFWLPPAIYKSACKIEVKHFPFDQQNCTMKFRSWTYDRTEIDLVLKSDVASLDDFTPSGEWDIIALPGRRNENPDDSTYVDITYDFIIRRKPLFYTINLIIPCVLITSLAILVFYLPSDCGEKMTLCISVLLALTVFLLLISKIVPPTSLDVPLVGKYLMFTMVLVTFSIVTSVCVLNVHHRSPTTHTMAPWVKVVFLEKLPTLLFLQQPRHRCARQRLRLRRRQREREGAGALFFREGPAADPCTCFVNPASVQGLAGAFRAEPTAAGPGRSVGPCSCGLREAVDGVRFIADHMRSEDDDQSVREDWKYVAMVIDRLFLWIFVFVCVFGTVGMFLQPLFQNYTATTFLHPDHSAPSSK
Description: This study, carried out according to the technique described in Molec. Pharmacol., 1990, 39; 9-12, is aimed at determining the affinity of compounds of the present invention for type α4β2 central nicotinic receptors.
Membranes (250 μg/ml) of rat brain are incubated (2 hours, 20° C.) in the presence of a series of concentrations (0.01-10 μM) of each compound of the present invention (diluted starting from a 10 mM stock solution in DMSO) and [^3H]-cytisine (S.A.: 1184 GBq/mmol: 2 nM) in phosphate buffer (NaH2PO4 20 mM, pH 7.4); final volume: 250 μl. The non-specific binding is determined by incubating membranes in the presence of 10 μM of (−)nicotine. The affinity of the compounds of the present invention for type α4β2 central nicotinic receptors is characterised by determination of the Ki.

[5] = system: release of acetylcholine in the prefrontal cortex; test: In vivo measurement of the release of acetylcholine by intra-cortical microdialysis in the conscious Wistar rat; parameters: dose or concentration left out as unconfirmed; details: one hour after administration
Description: The systemic administration of nicotine and nicotinic agonists causes an increase, in vivo, of acetylcholine in various regions of the brain (Neurochem. Res., 1996, 21, 1181-1186; Eur. J. Pharmacol., 1998, 351, 181-188; Br. J. Pharmacol., 1999, 127, 1486-1494). A microdialysis probe is implanted in the median prefrontal cortex of male Wistar rats. Six or seven days after they have been implanted, the probes are perfused with Ringer's solution (NaCl 147 mM, KCl 2.7 mM, CaCl2 1.2 mM, MgCl2 1 mM, neostigmine 20 nM) at a flow rate of 1 μl/min, the animal being free to move. After 2 hours in the animal quarters, the product under test is administered by the intraperitoneal route. A group of control animals receives the solvent used for the product. The dialysates (30 μl) are then collected every 30 minutes for 4 hours in order to measure the cortical extra-synaptic concentrations of acetylcholine by means of HPLC with amperometric detection. The results are expressed in pg of acetylcholine/dialysate, and inter-group comparisons are carried out by means of variance analysis using 2 factors (treatment×time), with measurements being repeated over time.

[6] = system: object recognition (memorisation); test: Object recognition in the Wistar rat; type: in vivo; details: 0.3 mg/kg PO, 2nd session 24 hours later
Description: The object recognition test in the Wistar rat (Behav. Brain Res., 1988, 31, 47-59) is based on the spontaneous exploratory activity of the animal and has the characteristics of episodic memory in humans. Sensitive to ageing (Eur. J. Pharmacol., 1997, 325, 173-180), as well as to cholinergic dysfunctions (Pharm. Biochem. Behav., 1996, 5(2), 277-283), this memory test is based on the differential exploration of 2 objects of fairly similar size, one familiar and the other new. Before the test, the animals are accustomed to the environment (enclosure without object). During a 1st session, the rats are placed (for 3 minutes) in an enclosure containing 2 identical objects. The duration of exploration of each object is measured. During the second session (3 minutes), 24 hours later, 1 of the 2 objects is replaced by a new object. The duration of exploration of each object is measured. The assessment criterion is the difference Delta, expressed in seconds, between the exploration times of the new object and the familiar object during the 2nd session.

**Q.** For `CN(CC1(N)CC1)c1cccnc1.Cl.Cl`, which melting point is on record?
**A.** The melting point was 218 to 222 °C.

**Q.** With `CNC1(CN(C)c2ccc(C)nc2)CC1.Cl.Cl` as the molecule, how does the melting point read?
**A.** The melting point was 112 to 115 °C.

**Q.** For `CN(CC1(N(C)C)CC1)c1cccnc1.Cl.Cl`, which melting point is on record?
**A.** Its melting point is 198 to 201 °C.

**Q.** For `CN(C)C1(CNc2cccnc2)CC1.Cl.Cl`, which melting point is on record?
**A.** The melting point was 208 to 210 °C.

**Q.** With `CNC1(CNc2ccc(Cl)nc2)CC1.Cl.Cl` [Example 9] as the molecule, how does the “reduction of the number of abdominal cramps caused by PBQ” value (“reduction” below) [1] read?
**A.** Its value is −52%.

**Q.** With `Cl.Cl.NC1(CNc2cccnc2)CC1` [Example 4, N-[(1-Aminocyclopropyl)methyl]pyridin-3-amine dihydrochloride] as the molecule, how does the “difference (T2−T1) between recognition times” value [2] read?
**A.** The value was 19 s.

**Q.** And the melting point?
**A.** The melting point was 195 to 199 °C.

**Q.** What does the source list for `CNC1(CN(C)c2cccnc2)CC1.Cl.Cl` [Example 2, N-Methyl-N-{[1-(methylamino)cyclopropyl]methyl}pyridin-3-amine dihydrochloride]?
**A.** Ki [3]: 8300 nM; Ki [4]: 15 nM; increase in the release of acetylcholine in the prefrontal cortex [5]: +80%; reduction of the number of abdominal cramps caused by PBQ [1]: −76%; difference (T2−T1) between recognition times [2]: 29 s; difference Delta between exploration times of new and familiar object [6]: 4 s; melting point: 180 to 184 °C

**Q.** Which melting point does the source give for `CN(CC1(N(C)C)CC1)c1ccc(Cl)nc1.Cl.Cl` here?
**A.** Its melting point is 163 to 166 °C.

**Q.** For `CNC1(CNc2ccc(C)nc2)CC1.Cl.Cl`, which melting point is on record?
**A.** Its melting point is 230 to 232 °C.

**Q.** Which melting point does the source give for `CN(C)C1(CNc2ccc(Cl)nc2)CC1.Cl.Cl` here?
**A.** The melting point was 158 to 160 °C.

**Q.** With `CNC1(CN(Cc2ccccc2)c2ccc(Cl)nc2)CC1.Cl.Cl` as the molecule, how does the melting point read?
**A.** Its melting point is 156 to 157 °C.

**Q.** With `CNC1(CN(C)c2ccc(Br)nc2)CC1.O=C(O)/C=C/C(=O)O` as the molecule, how does the melting point read?
**A.** Its melting point is 146 to 150 °C.

**Q.** For `CNC1(CN(C)c2ccc(Cl)nc2)CC1` [Example 10, 6-Chloro-N-methyl-N-{[1-(methylamino)cyclopropyl)methylpyridin-3-aminedihydrochloride], which Ki ([4]; [3H]-cytisine, rat brain membranes, read-out: Ki, type α4β2 central nicotinic receptors) is on record?
**A.** The Ki was 16 nM.

**Q.** What about the “reduction” value [1] of the same molecule?
**A.** Its value is −69%.

**Q.** Which melting point does the source give for `CNC1(CN(C)c2ccc(Cl)nc2)CC1` (as salt: hydrochloride) [Example 10, 6-Chloro-N-methyl-N-{[1-(methylamino)cyclopropyl)methylpyridin-3-aminedihydrochloride] here?
**A.** Its melting point is 133 to 136 °C.

**Q.** With `CNC1(CNc2cccnc2)CC1.Cl.Cl` [Example 1, N-{[1-(Methylamino)cyclopropyl]methyl}pyridin-3-amine dihydrochloride] as the molecule, how does the Ki [4] read?
**A.** Its Ki is 34 nM.

**Q.** What about the “increase in the release of acetylcholine in the prefrontal cortex” value [5] of the same molecule?
**A.** Its value is “+70%”.

**Q.** What about the “reduction” value [1] of the same molecule?
**A.** Its value is −50%.

**Q.** And the “difference (T2−T1) between recognition times” value [2]?
**A.** The value was 36 s.

**Q.** What about the “difference Delta between exploration times of new and familiar object” value [6] of the same molecule?
**A.** The value was 9 s.

**Q.** And the melting point?
**A.** Its melting point is 190 to 195 °C.

**Q.** Which melting point does the source give for `CN(C)C1(CN(Cc2ccccc2)c2ccc(Cl)nc2)CC1.Cl` here?
**A.** Its melting point is 190 to 192 °C.
